# Test results from PMC9569529, “Safe and Efficient Sigma1 Ligand: A Potential Drug Candidate for Multiple Sclerosis” (International Journal of Molecular Sciences, 2022).
# How the values were obtained:
# [1] = test system: TK6 cells; details: human
# Procedure: The frequency of micronucleated (MN) cells was determined out of at least 2000 mononucleated cells.
# [2] = test system: S. typhimurium TA1537; assay: Ames test; details: 7i 40 µg/plate
# [3] = test system: S1R–BiP complex; assay: S1R-BiP dissociation assay in CHO cells (co-IP, ELISA); assay type: cell-based; details: for effect on S1R–BiP association: 10 µM, 30-min incubation
# Procedure: The activity of compound 7i was evaluated in regard to its ability to dissociate the S1R–BiP complex. The S1R–BiP dissociation assay was performed by Amylgen (Montferrier-sur-Lez, France) as described in [13, 79]. Briefly, CHO cells were treated with test compounds for 30 min (37 °C). Crosslinking was performed with dithiobis succinimidyl propionate (DSP; Thermoscientific, Waltham, MA, USA). Lysis was performed after incubation for 15 min on ice. After centrifugation, supernatants were incubated overnight (4 °C) with the S1R antibody (Abcam, Cambridge, UK). Lysates were incubated with Sepharose Protein-A (Invitrogen). After the first centrifugation, the pellet was resuspended in radioimmunoprecipitation assay (RIPA) buffer. After a second centrifugation, the pellet was resuspended in 2× sample buffer/bMCE buffer. After the third centrifugation, supernatants were analyzed for BiP immunoreactivity (SEC343Mu ELISA, USCNK Life Sciences, Wuhan, China).
# [4] = test system: experimental autoimmune encephalomyelitis (EAE); set-up: method as in PMID 25521311; details: BD-1047 alone; cited from earlier work
# [5] = test system: S. typhimurium TA98; assay: Ames test; details: 7i 40 µg/plate
# [6] = test system: dizocilpine-induced learning deficits; assay: Dizocilpine-induced learning deficits, Y-maze spontaneous alternation; assay type: in vivo, male Swiss mice; details: 3 mg/kg i.p., alone
# Procedure: (§1) The activity of compound 7i was evaluated in regard to its ability to reverse dizocilpine-induced learning deficits. Two behavioral tests were performed by Amylgen (Montferrier-sur-Lez, France) on male Swiss mice (aged 6–9 weeks). All compounds (7i and controls) were intraperitoneally injected.
# (§2) Animals were tested for spontaneous alternation performance in the Y-maze, an index of spatial working memory. Made of grey polyvinylchloride, the Y-maze has an arm which is 40 cm long, 13 cm high and 3 cm wide at the bottom and 10 cm wide at the top, converging at an equal angle. Each mouse was placed at the end of one arm and allowed to move freely through the maze during an 8-min session. The series of arm entries, including possible returns into the same arm, were checked visually. An alternation was defined as entries into all three arms on consecutive occasions. The number of maximum alternations was therefore the total number of arm entries minus two, and the percentage of alternation was calculated as: (actual alternations/maximum alternations) × 100. Parameters included the percentage of alternation (memory index) and the total number of arm entries (exploration index). Animals showing extreme behavior (alternation < 20% or >90% or number of arm entries < 10) are usually discarded from the calculations. […] Step-through latency (the latency in time spent to enter the dark compartment) and the number of vocalizations were recorded. […] Step-through latency was recorded up to 300 s. When either the mouse entered the dark compartment or 300 s had elapsed (they were therefore manually placed in it), escape latency (latency to exit from the dark compartment) was recorded with a value of up to 300 s. […]
# [7] = test system: dizocilpine-induced learning deficits; assay: Dizocilpine-induced learning deficits, step-through passive avoidance; assay type: in vivo, male Swiss mice; details: 3 mg/kg i.p., alone
# Procedure: as §1, §2
# [8] = test system: QT interval; assay: ECG QT interval analysis under isoflurane anesthesia; details: for QT Interval Basal / QT Interval 3 min / QT Interval 6 min / QT Interval 10 min: in ms (unit assumed); for QT Interval 3 min: 3 min after injection; for QT Interval 6 min: 6 min after injection; for QT Interval 10 min: 10 min after injection
# Procedure: Four electrodes were inserted subcutaneously in the mouse limbs. Electrical signals were recorded with a Powerlab (Ad instruments) and analyzed with LabChart Pro software (v8.1.19).
# Heart rate and PR, QRS and QT intervals were measured as described in Supplementary Figure S3.
# [9] = test system: S. typhimurium TA1535; details: +S9; 7i 40 µg/plate; positive control 2-anthramine 0.5
# [10] = test system: S. typhimurium TA100; details: +S9; 7i 40 µg/plate; positive control 2-anthramine 0.5
# [11] = +S9, positive control 2-anthramine 0.5
smiles,measurement,setting,value
O=P1(N(CCCl)CCCl)NCCCO1 (centres unmarked) [Cyclophosphamide],MN/2 × 10^3 Cells,[1],35.5
same,RS (%),[1],88.3%
"Nc1c2ccccc2nc2ccccc12 [9-amino-acridine, reference compound]",Ames TA1537 −S9 (Mean revertants/well per title),"[2]; −S9, positive control 9-amino-acridine 1.56",8.4
"O=C(OCCN1CCOCC1)C1(c2ccccc2)CCCCC1 [PRE-084, reference compound]",effect on S1R–BiP association,[3],significantly causes the dissociation
same,effect on S1R–BiP dissociation in presence of NE-100,[3]; co-treatment with NE-100 (10 µM),blocks
CN(C)CCN(C)CCc1ccc(Cl)c(Cl)c1 [BD-1047],"effect on EAE development, alone",[4],no significant effect
"O=[N+]([O-])c1ccc2c(c1)Cc1ccccc1-2 [2-nitrofluorene, reference compound]",Ames TA98 −S9 (Mean revertants/well per title),"[5]; −S9, positive control 2-nitrofluorene 0.5",23.1
"CCCN(CCC)CCc1ccc(OC)c(OCCc2ccccc2)c1 [NE-100, reference compound]",effect on S1R–BiP association,[3],no effect
same,effect by itself in Y-maze,[6],devoid of any effect
same,effect by itself in passive avoidance,[7],devoid of any effect
"C=C[C@H]1C[N@@]2CC[C@H]1C[C@@H]2[C@@H](O)c1ccnc2ccc(OC)cc12 [Quinidine, reference compound]","QT interval, conclusion","[8]; 10 mg/kg and 100 mg/kg i.p., 6 to 10 min after injection",dose-dependently prolonged the QT interval
same,QT Interval Basal,[8]; 10.0 mg/kg i.p. group,46 ± 2
same,QT Interval 3 min,[8]; 10.0 mg/kg i.p.,50 ± 2
same,QT Interval 6 min,[8]; 10.0 mg/kg i.p.,64 ± 6
same,QT Interval 10 min,[8]; 10.0 mg/kg i.p.,65 ± 5
same,QT Interval Basal,[8]; 100.0 mg/kg i.p. group,47 ± 4
same,QT Interval 3 min,[8]; 100.0 mg/kg i.p.,58 ± 3
same,QT Interval 6 min,[8]; 100.0 mg/kg i.p.,84 ± 7
same,QT Interval 10 min,[8]; 100.0 mg/kg i.p.,76 ± 4
"Nc1ccc2cc3ccccc3cc2c1 [2-anthramine, reference compound]",Ames TA1535 +S9 (Mean revertants/well per title),[9],26.9
same,Ames TA100 +S9 (Mean revertants/well per title),[10],6.0
same,Ames TA1537 +S9 (Mean revertants/well per title),[2]; [11],27.6
same,Ames TA98 +S9 (Mean revertants/well per title),[5]; [11],36.0
